{
  "source": "paper PMC4806784",
  "about": "(Investigational new drugs, 2015)",
  "test": "Safety and tolerability",
  "format": "in vivo",
  "key": {"[1]": {"conditions": "Crossover from Panel 1 to Panel 2 (n = 4)"}},
  "data": [
    {"smiles": "O=C(O)[C@]1(Cc2cccc(Nc3nccs3)n2)CC[C@@H](Oc2cccc(Cl)c2F)CC1", "note": "[MK-5108]", "values": [
      {"measurement": "Drug-related AEs by SOC: Blood and lymphatic system disorders", "setting": "Crossover (N = 4)", "value": "2 (50.0) n (%)"},
      {"measurement": "Drug-related AEs by SOC: Gastrointestinal disorders", "setting": "Crossover (N = 4)", "value": "1 (25.0) n (%)"},
      {"measurement": "Drug-related AEs by SOC: General disorders and administration site conditions", "setting": "Crossover (N = 4)", "value": "2 (50.0) n (%)"},
      {"measurement": "Drug-related AEs by SOC: Infections and infestations", "setting": "Crossover (N = 4)", "value": "0 (0.0) n (%)"},
      {"measurement": "Drug-related AEs by SOC: Investigations", "setting": "Crossover (N = 4)", "value": "1 (25.0) n (%)"},
      {"measurement": "Drug-related AEs by SOC: Metabolism and nutrition disorders", "setting": "Crossover (N = 4)", "value": "2 (50.0) n (%)"},
      {"measurement": "Drug-related AEs by SOC: Musculoskeletal and connective tissue disorders", "setting": "Crossover (N = 4)", "value": "1 (25.0) n (%)"},
      {"measurement": "Drug-related AEs by SOC: Nervous system disorders", "setting": "Crossover (N = 4)", "value": "1 (25.0) n (%)"},
      {"measurement": "Drug-related AEs by SOC: Respiratory, thoracic and mediastinal disorders", "setting": "Crossover (N = 4)", "value": "1 (25.0) n (%)"},
      {"measurement": "Drug-related AEs by SOC: Skin and subcutaneous tissue disorders", "setting": "Crossover (N = 4)", "value": "1 (25.0) n (%)"},
      {"measurement": "Drug-related AEs by SOC: Vascular disorders", "setting": "Crossover (N = 4)", "value": "0 (0.0) n (%)"},
      {"measurement": "Patients with drug-related AEs, highest grade: Grade 1", "setting": "Crossover (N = 4)", "value": "1 (25.0) n (%)"},
      {"measurement": "Patients with drug-related AEs, highest grade: Grade 2", "setting": "Crossover (N = 4)", "value": "0 (0.0) n (%)"},
      {"measurement": "Patients with drug-related AEs, highest grade: Grade 3", "setting": "Crossover (N = 4)", "value": "1 (25.0) n (%)"},
      {"measurement": "Patients with drug-related AEs, highest grade: Grade 4", "setting": "Crossover (N = 4)", "value": "1 (25.0) n (%)"},
      {"measurement": "Patients with no drug-related AEs", "setting": "Crossover (N = 4)", "value": "1 (25.0) n (%)"},
      {"measurement": "Patients with one or more drug-related AEs", "setting": "Crossover (N = 4)", "value": "3 (75.0) n (%)"},
      {"measurement": "Death", "setting": "[1]", "value": "0 n (%)"},
      {"measurement": "Discontinued treatment due to a drug-related AE", "setting": "[1]", "value": "0 n (%)"},
      {"measurement": "Discontinued treatment due to a drug-related SAE", "setting": "[1]", "value": "0 n (%)"},
      {"measurement": "Discontinued treatment due to an SAE", "setting": "[1]", "value": "0 n (%)"},
      {"measurement": "Discontinued treatment due to any AE", "setting": "[1]", "value": "0 n (%)"},
      {"measurement": "Patients with any AE", "setting": "[1]", "value": "4 (100.0) n (%)"},
      {"measurement": "Patients with drug-related AE", "setting": "[1]", "value": "3 (75.0) n (%)"},
      {"measurement": "Patients with no AE", "setting": "[1]", "value": 0, "unit": "n"},
      {"measurement": "Patients with serious AE", "setting": "[1]", "value": "0 n (%)"},
      {"measurement": "Patients with serious drug-related AE", "setting": "[1]", "value": "0 n (%)"},
      {"measurement": "MTD", "setting": "MK-5108 MT, doses up to 1800 mg Q12hr", "value": "not established"},
      {"measurement": "tolerability", "setting": "MT, doses up to 1800 mg Q12hr (3600 mg/day)", "value": "generally well tolerated"},
      {"measurement": "patients experiencing a DLT", "setting": "Panel 1 (MT)", "value": "no patients"},
      {"measurement": "patients with a Grade 3 or 4 drug-related AE", "setting": "Panel 1 (MT)", "value": "No patients"},
      {"measurement": "AEs (all grades and doses) by SOC: General disorders and administration site conditions", "setting": "Panel 1 (MT), 11/14", "value": 78.6, "unit": "%"},
      {"measurement": "AEs (all grades and doses) by SOC: Gastrointestinal disorders", "setting": "Panel 1 (MT), 12/14", "value": 85.7, "unit": "%"},
      {"measurement": "Drug-related AEs by SOC: Blood and lymphatic system disorders", "setting": "Panel 1: MK-5108 MT (N = 14)", "value": "4 (28.6) n (%)"},
      {"measurement": "Drug-related AEs by SOC: Gastrointestinal disorders", "setting": "Panel 1: MK-5108 MT (N = 14)", "value": "7 (50.0) n (%)"},
      {"measurement": "Drug-related AEs by SOC: General disorders and administration site conditions", "setting": "Panel 1: MK-5108 MT (N = 14)", "value": "7 (50.0) n (%)"},
      {"measurement": "Drug-related AEs by SOC: Infections and infestations", "setting": "Panel 1: MK-5108 MT (N = 14)", "value": "0 (0.0) n (%)"},
      {"measurement": "Drug-related AEs by SOC: Investigations", "setting": "Panel 1: MK-5108 MT (N = 14)", "value": "2 (14.3) n (%)"},
      {"measurement": "Drug-related AEs by SOC: Metabolism and nutrition disorders", "setting": "Panel 1: MK-5108 MT (N = 14)", "value": "2 (14.3) n (%)"},
      {"measurement": "Drug-related AEs by SOC: Musculoskeletal and connective tissue disorders", "setting": "Panel 1: MK-5108 MT (N = 14)", "value": "1 (7.1) n (%)"},
      {"measurement": "Drug-related AEs by SOC: Nervous system disorders", "setting": "Panel 1: MK-5108 MT (N = 14)", "value": "3 (21.4) n (%)"},
      {"measurement": "Drug-related AEs by SOC: Respiratory, thoracic and mediastinal disorders", "setting": "Panel 1: MK-5108 MT (N = 14)", "value": "1 (7.1) n (%)"},
      {"measurement": "Drug-related AEs by SOC: Skin and subcutaneous tissue disorders", "setting": "Panel 1: MK-5108 MT (N = 14)", "value": "1 (7.1) n (%)"},
      {"measurement": "Drug-related AEs by SOC: Vascular disorders", "setting": "Panel 1: MK-5108 MT (N = 14)", "value": "0 (0.0) n (%)"},
      {"measurement": "Patients with drug-related AEs, highest grade: Grade 1", "setting": "Panel 1: MK-5108 MT (N = 14)", "value": "3 (21.4) n (%)"},
      {"measurement": "Patients with drug-related AEs, highest grade: Grade 2", "setting": "Panel 1: MK-5108 MT (N = 14)", "value": "5 (35.7) n (%)"},
      {"measurement": "Patients with drug-related AEs, highest grade: Grade 3", "setting": "Panel 1: MK-5108 MT (N = 14)", "value": "0 (0.0) n (%)"},
      {"measurement": "Patients with drug-related AEs, highest grade: Grade 4", "setting": "Panel 1: MK-5108 MT (N = 14)", "value": "0 (0.0) n (%)"},
      {"measurement": "Patients with no drug-related AEs", "setting": "Panel 1: MK-5108 MT (N = 14)", "value": "6 (42.9) n (%)"},
      {"measurement": "Patients with one or more drug-related AEs", "setting": "Panel 1: MK-5108 MT (N = 14)", "value": "8 (57.1) n (%)"},
      {"measurement": "Death", "setting": "Panel 1: MK-5108 MT (n = 14)", "value": "1 (7.1) n (%)"},
      {"measurement": "Discontinued treatment due to a drug-related AE", "setting": "Panel 1: MK-5108 MT (n = 14)", "value": "0 n (%)"},
      {"measurement": "Discontinued treatment due to a drug-related SAE", "setting": "Panel 1: MK-5108 MT (n = 14)", "value": "0 n (%)"},
      {"measurement": "Discontinued treatment due to an SAE", "setting": "Panel 1: MK-5108 MT (n = 14)", "value": "1 (7.1) n (%)"},
      {"measurement": "Discontinued treatment due to any AE", "setting": "Panel 1: MK-5108 MT (n = 14)", "value": "2 (14.3) n (%)"},
      {"measurement": "Patients with any AE", "setting": "Panel 1: MK-5108 MT (n = 14)", "value": "14 (100.0) n (%)"},
      {"measurement": "Patients with drug-related AE", "setting": "Panel 1: MK-5108 MT (n = 14)", "value": "8 (57.1) n (%)"},
      {"measurement": "Patients with no AE", "setting": "Panel 1: MK-5108 MT (n = 14)", "value": 0, "unit": "n"},
      {"measurement": "Patients with serious AE", "setting": "Panel 1: MK-5108 MT (n = 14)", "value": "4 (28.6) n (%)"},
      {"measurement": "Patients with serious drug-related AE", "setting": "Panel 1: MK-5108 MT (n = 14)", "value": "0 n (%)"},
      {"measurement": "patients experiencing a DLT", "setting": "Panel 2 (CT), 100 mg Q12hr (200 mg/day), febrile neutropenia (Grade 3)", "value": "one patient"},
      {"measurement": "patients experiencing any DLTs", "setting": "Panel 2 (CT), 150 mg Q12hr, 6 patients", "value": "None"},
      {"measurement": "DLTs", "setting": "Panel 2 (CT), 225 mg Q12hr (450 mg/day), febrile neutropenia (Grade 4) and infection (Grade 3)", "value": 2},
      {"measurement": "AEs (all grades and doses) by SOC: Gastrointestinal disorders", "setting": "Panel 2 (CT), 12/17", "value": 70.6, "unit": "%"},
      {"measurement": "AEs (all grades and doses) by SOC: Metabolism and nutrition disorders", "setting": "Panel 2 (CT), 12/17", "value": 70.6, "unit": "%"}
    ]}
  ]
}
